Data from patent publication US8637510B2, “Morpholinothiazoles as alpha 7 positive allosteric modulators” (Janssen Pharmaceutica NV, priority 2009, dated 2014).

Legend:
[1] = target: T1, human alpha 7-wt nAChR (Homo sapiens, UniProt P36544); test: Ca2+ flux imaging (FDSS) (Protocol B); type: cell-based; conditions: for Emax: efficacy of 100 μM choline defined as 100% in the absence of a PAM, read-out: a7-PAM-G_[33]_Eff_Curve_FI % Efficacy; for EC50: potentiation of 100 μM choline, compounds 0.01 μM to 30 μM, read-out: a7-PAM-G_[33]_pEC50 pEC50 (converted)
T1 construct: expressed in transfected cells
T1 sequence (P36544 23-502): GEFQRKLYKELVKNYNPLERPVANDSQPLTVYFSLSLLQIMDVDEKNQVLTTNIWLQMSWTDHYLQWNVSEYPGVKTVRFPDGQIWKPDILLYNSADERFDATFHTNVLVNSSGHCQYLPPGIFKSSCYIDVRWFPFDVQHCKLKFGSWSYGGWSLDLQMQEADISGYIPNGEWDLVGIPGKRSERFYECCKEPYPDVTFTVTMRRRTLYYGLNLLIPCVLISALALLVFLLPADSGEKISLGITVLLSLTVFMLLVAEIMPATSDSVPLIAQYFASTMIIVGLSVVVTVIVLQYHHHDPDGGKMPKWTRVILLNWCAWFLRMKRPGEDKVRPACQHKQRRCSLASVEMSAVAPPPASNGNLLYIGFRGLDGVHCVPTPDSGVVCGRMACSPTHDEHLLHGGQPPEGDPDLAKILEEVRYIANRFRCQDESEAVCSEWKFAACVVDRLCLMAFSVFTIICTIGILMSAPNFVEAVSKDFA
Outline: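 PAM activity was measured as FDSS calcium fluorescence in α7-wt nAChR cells loaded with 2 μM Fluo-4AM, with compounds at 0.01–30 μM added alongside or 10 min ahead of sub-maximal 100 μM choline. Peak responses were normalised to choline-only efficacy, and EC50 was taken at half-maximal effect.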

[2] = target: T2, human alpha 7-wt nAChR-expressing GH4C1 cells (Homo sapiens, UniProt P36544); test: Patch-clamp current recording (whole-cell voltage-clamp, PAM type classification); type: cell-based; parameters: key: Type 0 compounds minimally change the effect size of the current elicited by 1 mM choline.; Type 1 compounds enhance the effect size of the current elicited by 1 mM choline but minimally alter the kinetics of the receptor.; Type 2 compounds enhance the effect size of the current elicited by 1 mM choline while reducing the rate and/or the extent of desensitization.; Type 3 compounds enhance the effect size of the current elicited by 1 mM choline. When tested at higher concentrations up to 10 μM they completely inhibit desensitization; Type 4 compounds allow for an initial desensitization of the receptor followed by a re-opening of the receptor during agonist application; conditions: 1 mM choline
T2 construct: expressed in transfected cells
T2 sequence (P36544 23-502): as above
Method: The compounds of the present invention are classified as type 1-4, based on qualitative kinetic properties, as determined by whole-cell voltage-clamp recordings. This classification is based on the effect of an alpha 7 PAM compound, as described hereinbefore, on the signal elicited by an agonist application. In particular, said agonist is choline at a concentration of 1 mM. In a preferred experimental setting, said alpha 7 PAM compound and choline are simultaneously applied to the cell, as described hereinafter. Desensitization is defined as the closure of the receptor upon activation during the application of the agonist in whole-cell voltage-clamp electrophysiology measurements seen as the reduction of the […] current after initial activation by the agonist.
The definition of the PAM types 1-4 is described hereinafter: • Type 0 compounds minimally change the effect size of the current elicited by 1 mM choline. • Type 1 compounds enhance the effect size of the current elicited by 1 mM choline but minimally alter the kinetics of the receptor. In particular, the rate and the extent of desensitization and of deactivation of the receptor elicited by the agonist is not affected. The compound-modulated response to 1 mM choline, therefore, is close to a linear scaling of the 1 mM choline response in absence of the alpha 7 PAM compound. • Type 2 compounds enhance the effect size of the current elicited by 1 mM choline while reducing the rate and/or the extent of desensitization. Deactivation of the receptor is generally unaffected. • Type 3 compounds enhance the effect size of the current elicited by 1 mM choline. […] Deactivation of the receptor may be slowed down • Type 4 compounds allow for an initial desensitization of the receptor followed by a re-opening of the receptor during agonist application. At low-potency concentrations of the alpha 7 PAM compound, the agonist-induced activation, which is followed by desensitization, can still be separated from the compound-induced re-opening as an initial inward current-maximum. At higher potency concentrations of the alpha 7 PAM compound, the re-opening occurs faster than the closure due to desensitization so that the initial current-maximum disappears.
A compound was considered to have interesting PAM-like activity when the potentiation of the peak current was at least 200% compared to the control choline response (=100%). Such compounds are classified as belonging to a particular PAM type in the Experimental Part. Compounds not meeting the condition are not classified as belonging to a particular PAM-type.
The compounds also have a potentiating effect on the response to choline when measured by whole-cell patch clamp electrophysiology in GH4C1 cells stably over-expressing the human wild-type alpha 7 receptor.
Patch-clamp recording from mammalian cells has provided a powerful means of assessing the function of membrane-bound proteins thought to be subunits of ligand-gated ion channels. Activation of such proteins by endogenous or exogenous ligands cause opening of a pore associated with the receptor through which ions flow down their electrochemical gradient. In the case of the human alpha 7-wt nAChR-expressing GH4C1 recombinant cell line the preferential permeability to calcium of this receptor means that calcium flows into the cell upon activation by ACh, choline and other nicotinic ligands giving rise to a calcium current. Since this receptor rapidly desensitizes in the presence of agonist it is important that an application system is used which is capable of very rapid switching of solutions (<100 ms) to prevent partial or full desensitisation of receptor responses coincident with the time of agonist application. Consequently, a second convenient technique to assess the enhancement of nicotinic efficacy is a patch-clamp recording from human alpha 7-wt nAChR-expressing GH4C1 cells coupled with a rapid-application system. […]

SMILES	Emax [1] [%]	EC50 [1] [nM]	melting point [°C]	PAM_Type PAM type [2]
Cc1cc(-c2sc(N3C[C@@H](C)O[C@@H](C)C3)nc2CNC(=O)c2cc(C)on2)ccn1 [Compound 87, N-[[2-[(2R,6S)-2,6-dimethyl-4-morpholinyl]-5-(2-methyl-4-pyridinyl)-4-thiazolyl]methyl]-5-methyl-3-isoxazolecarboxamide]	646	813	177	2
Cc1cc(-c2sc(N3CC4CCC(C3)O4)nc2CNC(=O)C(C)C)cc(C)n1 [Compound 207, N-[[5-(2,6-dimethyl-4-pyridinyl)-2-(8-oxa-3-azabicyclo[3.2.1]oct-3-yl)-4-thiazolyl]methyl]-2-methyl-propanamide]		3310	179	1
COc1cc(-c2sc(N3C[C@@H](C)O[C@@H](C)C3)nc2CNC(=O)CC2CC2)cc(C)n1 [Compound 83, N-[[2-[(2R,6S)-2,6-dimethyl-4-morpholinyl]-5-(2-methoxy-6-methyl-4-pyridinyl)-4-thiazolyl]methyl]-cyclopropaneacetamide]	584	145	171	2
C[C@@H]1CN(c2nc(CNC(=O)CC3CC3)c(-c3ccnc(C(F)(F)F)c3)s2)C[C@H](C)O1 [Compound 200, N-[[2-[(2R,6S)-2,6-dimethyl-4-morpholinyl]-5-[2-(trifluoromethyl)-4-pyridinyl]-4-thiazolyl]methyl]-cyclopropaneacetamide]		162	198	1
CCC(=O)NCc1nc(N2C[C@@H](C)O[C@@H](C)C2)sc1-c1cc(C)nc(C)c1 [Compound 39, N-[[2-[(2R,6S)-2,6-dimethyl-4-morpholinyl]-5-(2,6-dimethyl-4-pyridinyl)-4-thiazolyl]methyl]-propanamide]	498	871	176	2

Now from value to compound, other results behind:

Emax [1] [%]	EC50 [1] [nM]	melting point [°C]	SMILES	PAM_Type PAM type [2]
611	550	189	Cc1cc(-c2sc(N3CCOC(C)C3)nc2CNC(=O)C(C)C)cc(C)n1 (single isomer, unassigned) [Compound 76, N-[[5-(2,6-dimethyl-4-pyridinyl)-2-[(2R*)-2-methyl-4-morpholinyl]-4-thiazolyl]methyl]-2-methyl-propanamide]	2
	1260	135	Cc1cc(-c2sc(N3CCOC(C)(C)C3)nc2CNC(=O)CC2CC2)cc(C)n1 [Compound 156, N-[[2-(2,2-dimethyl-4-morpholinyl)-5-(2,6-dimethyl-4-pyridinyl)-4-thiazolyl]methyl]-cyclopropaneacetamide]	0
	186	170	Cc1cc(-c2sc(N3CCOC(C(F)(F)F)C3)nc2CNC(=O)c2cc(C)on2)cc(C)n1 (centres unmarked) [Compound 195, N-[[5-(2,6-dimethyl-4-pyridinyl)-2-[2-(trifluoromethyl)-4-morpholinyl]-4-thiazolyl]methyl]-5-methyl-3-isoxazolecarboxamide]	0
670	234	183	Cc1cc(-c2sc(N3CCO[C@H](C(F)(F)F)C3)nc2CNC(=O)CC2CC2)cc(C)n1 [Compound 192, N-[[5-(2,6-dimethyl-4-pyridinyl)-2-[(2S)-2-(trifluoromethyl)-4-morpholinyl]-4-thiazolyl]methyl]-cyclopropaneacetamide]	2
	55	189	Cc1cc(-c2sc(N3CCOC(C(F)(F)F)C3)nc2CNC(=O)C(C)C)cc(C)n1 (centres unmarked) [Compound 194, N-[[5-(2,6-dimethyl-4-pyridinyl)-2-[2-(trifluoromethyl)-4-morpholinyl]-4-thiazolyl]methyl]-2-methyl-propanamide]	3
